Measurements taken from the supplement of paper PMC8967900.

How the values were obtained:
Assay in all cases: selective drug sensitivity score (sDSS, relative to normal bone marrow) (sDSS (score)); higher = more potent and effective on the cell line relative to normal bone marrow cells
Conditions in all cases: 72 h
MHH-CALL-2 = tested on: MHH-CALL-2
KASUMI-10 = tested on: KASUMI-10
MOLT-14 = tested on: MOLT-14
PF-382 = tested on: PF-382
NALL-1 = tested on: NALL-1
MHH-CALL-4 = tested on: MHH-CALL-4
ALL-SIL = tested on: ALL-SIL
KASUMI-2 = tested on: KASUMI-2
JURKAT = tested on: JURKAT
KARPAS-45 = tested on: KARPAS-45
P12-ICHIKAWA = tested on: P12-ICHIKAWA
KOPN-8 = tested on: KOPN-8
697 = tested on: 697
380 = tested on: 380
NALM-6 = tested on: NALM-6
COG-LL-319h = tested on: COG-LL-319h
HPB-ALL = tested on: HPB-ALL
CCRF-CEM = tested on: CCRF-CEM
HAL-01 = tested on: HAL-01
COG-LL-332h = tested on: COG-LL-332h
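Also: ALL cell lines in 384-well plates, five doses spanning 10,000-fold, each plate scaled between vehicle and 100 µmol/L benzalkonium chloride controls, sDSS an adapted area-under-curve metric.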

Structure (SMILES) | selective drug sensitivity score (MHH-CALL-2) | selective drug sensitivity score (KASUMI-10) | selective drug sensitivity score (MOLT-14) | selective drug sensitivity score (PF-382) | selective drug sensitivity score (NALL-1) | selective drug sensitivity score (MHH-CALL-4) | selective drug sensitivity score (ALL-SIL) | selective drug sensitivity score (KASUMI-2) | selective drug sensitivity score (JURKAT) | selective drug sensitivity score (KARPAS-45) | selective drug sensitivity score (P12-ICHIKAWA) | selective drug sensitivity score (KOPN-8) | selective drug sensitivity score 697 | selective drug sensitivity score 380 | selective drug sensitivity score (NALM-6) | selective drug sensitivity score (COG-LL-319h) | selective drug sensitivity score (HPB-ALL) | selective drug sensitivity score (CCRF-CEM) | selective drug sensitivity score (HAL-01) | selective drug sensitivity score (COG-LL-332h)
Cc1[nH]c2ccccc2c1CCNCc1ccc(/C=C/C(=O)NO)cc1 [Panobinostat] (top concentration 1000 nM) | 8.44 | 7.74 | 6.74 | 4.34 | -0.46 | 4.94 | 6.04 | 14.3 | 1.04 | 10.7 | 4.14 | 18.2 | 7.64 | 12.1 | 4.14 | 14.2 | 10.1 | 5.34 | -3.26 | 3.64
COc1ccc2[nH]cc(/C=C3\C(=O)Nc4ccc(NC(=O)CCN5CCCCC5)cc43)c2c1 (top concentration 50000 nM) | -2.82 | 1.78 | 0.98 | 1.18 | -2.52 | -1.82 | 1.58 | -4.72 | -3.22 | 7.98 | -0.52 | 1.38 | -0.02 | -4.62 | -2.12 | -4.42 | -3.32 | -0.02 | -3.42 | 4.68
NC(=O)c1cccc2cn(-c3ccc(C4CCCNC4)cc3)nc12 (stereo not given) [Niraparib] (top concentration 10000 nM) | 3.78 | 1.58 | 12.8 | -2.12 | 4.08 | 4.58 | 2.88 | 4.28 | 0.38 | -0.62 | 0.68 | 16.1 | 12.9 | 15.8 | 1.18 | 14.2 | -3.32 | 4.68 | 3.18 | 3.88
Cn1ncnc1[C@H]1c2n[nH]c(=O)c3cc(F)cc(c23)N[C@@H]1c1ccc(F)cc1 [Talazoparib] (top concentration 1000 nM) | 9.48 | 3.38 | 10.5 | -3.62 | 8.78 | 10.2 | 3.48 | 13.2 | -0.22 | -2.12 | -0.52 | 27.5 | 15.8 | 21.4 | 3.78 | 21.3 | -4.92 | 5.98 | 6.58 | 6.58
CCC(C)n1ncn(-c2ccc(N3CCN(c4ccc(OCC5COC(Cn6cncn6)(c6ccc(Cl)cc6Cl)O5)cc4)CC3)cc2)c1=O (stereo not given) [Itraconazole] (top concentration 5000 nM) | 5.48 | -4.32 | -1.02 | 0.38 | -4.12 | -0.12 | 2.88 | -3.22 | 1.58 | 6.18 | -0.32 | 13.1 | 0.18 | -1.72 | -1.02 | 10.7 | 5.68 | -1.22 | 2.28 | 2.48
CO[C@@H](C)Cn1c(=O)n(C)c2cnc3ccc(-c4cncc(C(C)(C)O)c4)cc3c21 (top concentration 2500 nM) | 6.98 | -1.02 | 2.08 | 5.88 | 0.48 | 1.08 | 4.78 | 12.3 | 2.98 | 2.08 | 1.38 | 13.9 | 9.78 | 10.3 | 3.68 | 5.48 | 2.18 | 8.48 | 1.98 | 4.18
C=CCn1c(=O)c2cnc(Nc3ccc(N4CCN(C)CC4)cc3)nc2n1-c1cccc(C(C)(C)O)n1 [AZD1775] (top concentration 10000 nM) | 10.5 | 7.84 | 14.3 | 12.4 | 4.84 | 1.94 | 10 | 4.94 | 11.3 | 14.9 | 13.6 | 14.1 | 15.4 | 10.8 | 11 | 18.8 | 9.44 | 14.2 | 8.34 | 11
Cc1cc(Nc2cc(N3CCN(C)CC3)nc(/C=C/c3ccccc3)n2)n[nH]1 [ENMD-2076] (top concentration 10000 nM) | 5.44 | 9.14 | 6.64 | 1.34 | 5.84 | 0.34 | 8.94 | -4.76 | 3.64 | 5.14 | 8.24 | 8.34 | 9.54 | 2.54 | 5.44 | 5.54 | 4.44 | 5.04 | 5.54 | 4.34
O=C(O)c1ccc(-c2c[nH]c3ncc(-c4ccccc4)cc23)cc1C1CCCC1 (top concentration 10000 nM) | 11.7 | 5.46 | 2.46 | -0.34 | 7.66 | -1.44 | 4.26 | -1.44 | 0.16 | 4.36 | 3.46 | 4.16 | 0.96 | 0.86 | -1.44 | 1.36 | 0.06 | 3.66 | 4.26 | 2.86
COc1ccc(-c2nc(N3CCOCC3)c3sc(CN(C)c4ncc(C(=O)NO)cn4)cc3n2)cn1 [Fimepinostat (CUDC-907)] (top concentration 10000 nM) | 10.3 | 9.18 | 9.18 | 2.58 | -3.42 | 9.68 | 8.98 | 8.88 | 0.98 | 9.58 | 5.18 | 10.9 | 9.88 | 10.3 | 8.68 | -3.82 | -4.02 | 6.88 | 0.98 | 1.08
COc1ccc(C[C@H](NC(=O)[C@H](C)NC(=O)CN2CCOCC2)C(=O)N[C@@H](Cc2ccccc2)C(=O)[C@@]2(C)CO2)cc1 [ONX-0914] (top concentration 10000 nM) | 0.5 | 0.9 | 0.5 | 6.5 | 9.8 | 2.9 | 3.8 | 0.6 | -4.4 | 1.8 | 7.3 | 1.5 | -5 | 5.5 | -1.7 | -0.8 | -2.4 | 3.1 | -9.3 | 2.2
CC(=O)Nc1ccc(C(=O)Nc2ccccc2N)cc1 [Tacedinaline] (top concentration 1000 nM) | 7.68 | 0.98 | -0.02 | -0.02 | -0.02 | 9.18 | 6.08 | -0.02 | 0.68 | 2.08 | 0.68 | 15.5 | 1.88 | 12.2 | -0.02 | 1.98 | -0.02 | 2.08 | 9.18 | -0.02
CCN(CC)CCCC(C)Nc1c2ccc(Cl)cc2nc2ccc(OC)cc12 (stereo not given) [Mepacrine] (top concentration 50000 nM) | -5.6 | 0.6 | -0.7 | -4.6 | -10 | -8.4 | -7.3 | -9.5 | -7.7 | -0.8 | -7.8 | 0.1 | -3.7 | -1.7 | -5.5 | -2.9 | -6.8 | -5 | -3.5 | -0.4
CN(C)c1cc2c(cc1Sc1nc3c(N)nccc3n1CCNCC(C)(C)C)OCO2 [CUDC-305] (top concentration 10000 nM) | 1.02 | 3.52 | 5.12 | 3.82 | 0.42 | 0.92 | 3.02 | -0.28 | 1.22 | 5.02 | 2.82 | 4.32 | 2.92 | 3.22 | 4.72 | -2.48 | 4.42 | 3.32 | 3.32 | 3.82
Cc1cn(-c2cc(NC(=O)c3ccc(C)c(Nc4nccc(-c5cccnc5)n4)c3)cc(C(F)(F)F)c2)cn1 [Nilotinib] (top concentration 10000 nM) | 8.9 | 0 | 2.1 | 2.7 | 5.8 | 2 | 43.3 | 4.1 | 1.1 | 4.2 | 0.6 | 9.7 | 1.3 | 6.1 | 0 | 8.2 | 0 | 2.1 | 3.3 | 16.4
CCC/C=C/C=C/C(=O)O[C@H]1/C(=C/C(=O)OC)C[C@H]2C[C@H]([C@@H](C)O)OC(=O)C[C@H](O)C[C@@H]3C[C@H](OC(C)=O)C(C)(C)[C@](O)(C[C@@H]4C/C(=C/C(=O)OC)C[C@H](/C=C/C(C)(C)[C@]1(O)O2)O4)O3 [Bryostatin_1] (top concentration 100 nM) | 8.68 | 6.78 | -7.12 | 4.18 | -7.12 | -7.12 | -7.12 | -7.12 | -0.02 | -7.12 | 1.68 | 26.9 | 12 | -7.12 | -7.12 | -7.12 | -7.12 | -7.12 | 0.08 | -7.12
NC(=O)NO [Hydroxyurea] (top concentration 1000000 nM) | 4.56 | 1.86 | 9.16 | 1.26 | -3.74 | -1.04 | 3.56 | -2.14 | 3.16 | 2.86 | 6.46 | 11.9 | 12.8 | -1.04 | 2.56 | 9.26 | -1.24 | 3.96 | 5.26 | 12.5
CCNC(=O)c1noc(-c2cc(C(C)C)c(O)cc2O)c1-c1ccc(CN2CCOCC2)cc1 [Luminespib] (top concentration 1000 nM) | -3.9 | 4.4 | -0.6 | -1.4 | -5.8 | 1.7 | -0.1 | 6.5 | -5.5 | -2.7 | -5 | 6.7 | -1.5 | 6.3 | -0.5 | 3.1 | -2.5 | -0.5 | -3.7 | 7.1
